For three compounds, IC50 results are on record in paper PMC6310130 (Molecular and biochemical parasitology, 2014).

Where a SMILES comes first, the peptide text is derived from it. [ ]: non-standard residue; d: D form. The star is where a group is joined. Sta = CC(C)C[C@H](N)[C@@H](O)CC(=O)O; Isovaleryl = CC(C)CC(=O)*

As usually defined, the IC50 is the concentration at which inhibition is half-maximal.

The experiment deals with Plasmepsin V (Plasmodium falciparum, UniProt Q8I6Z5). As to the kind of experiment: fluorogenic HRPII peptide cleavage assay, recombinant refolded enzyme, pH […]. In kind it is biochemical.
Plasmepsin V, sequence (Q8I6Z5 81-521): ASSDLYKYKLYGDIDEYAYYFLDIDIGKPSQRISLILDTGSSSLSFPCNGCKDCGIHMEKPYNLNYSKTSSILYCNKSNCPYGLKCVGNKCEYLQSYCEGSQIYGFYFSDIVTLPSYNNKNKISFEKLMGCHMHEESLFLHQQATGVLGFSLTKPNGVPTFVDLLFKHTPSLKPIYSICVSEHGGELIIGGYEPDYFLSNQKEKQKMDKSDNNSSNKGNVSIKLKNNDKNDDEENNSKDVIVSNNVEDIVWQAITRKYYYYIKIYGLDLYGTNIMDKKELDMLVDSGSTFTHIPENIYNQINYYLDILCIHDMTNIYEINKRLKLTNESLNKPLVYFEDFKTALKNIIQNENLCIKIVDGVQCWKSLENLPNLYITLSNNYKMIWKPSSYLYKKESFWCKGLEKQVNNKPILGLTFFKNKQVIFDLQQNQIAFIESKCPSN

`CC(C)CC(=O)N[C@H](C(=O)N[C@H](C(=O)N[C@@H](CC(C)C)[C@@H](O)CC(=O)N[C@@H](C)C(=O)N[C@@H](CC(C)C)[C@@H](O)CC(=O)O)C(C)C)C(C)C` [pepstatin A] (Isovaleryl-VV[Sta]A[Sta]-OH): the IC50 is 22 µM. In the case of KNI-10742 it was 108 µM; in that of KNI-10743, 44 µM.
